# Assays:
# [1] = Dynamic light scattering of the self-assembled probe nanoparticles; format: physicochemical; settings: compound 3 20 μM in phosphate buffer solution pH=7.4, dynamic light scattering
# Description: (§1) 40 μL of compound 3 (1 mM) in a phosphate buffer solution was taken by using a pipette and placed in an ep-tube. 1960 μL of a phosphate buffer solution (pH=7.4) was added into the ep-tube under an ultrasonic condition so that the final concentration of compound 3 was 20 μM. The mixture was stirred for 30 min under room temperature to generate opalescence. In order to verify nano-aggregation behavior thereof, an average particle size thereof measured by a dynamic light scattering experiment was 600 nm, as shown in FIG. 1.
# [2] = Linear relationship between fluorescence intensity of the probe nanoparticles and lysophosphatidic acid concentration; settings: compound 3 20 μM, phosphate buffer pH 7.4, incubated 1 min at room temperature
# Description: as §1
# A series of different volumes of the stock solution of lysophosphatidic acid in the phosphate buffer solution were respectively added to the system prepared in Example 2, so that the final concentrations of lysophosphatidic acid respectively were 0 μM, 0.2 μM, 0.4 μM, 0.8 μM, 1.0 μM, 1.2 μM, 1.4 μM, 1.8 μM, 2.0 μM, 4.0 μM, 8.0 μM, 10.0 μM, 12.0 μM, 14.0 μM, 16.0 μM, 18.0 μM, 20.0 μM, 25.0 μM, 30.0 μM, 33.0 μM. After all of testing solution were prepared, the testing solutions were mixed uniformly with a vortex. After being incubated for 1 min at room temperature, the fluorescence emission intensity thereof at 557 was measured.
# [3] = Selectivity of the fluorescent nanoprobe for detecting lysophosphatidic acid; settings: compound 3 10 μM, excitation 400 nm
# Description: The prepared fluorescent molecular probe solution was used for evaluating the selectivity of the probe to lysophosphatidic acid. An excitation wavelength of the nanoprobe was 400 nm. The concentration of the compound 3 in the system was 10 μM. Lysophosphatidic acid with a final concentration of 50 μM and L-proline, glycerin, sodium phosphate, magnesium sulfate, sodium acetate, sodium nitrate, sodium fluoride, glucose, urea, and lysophosphatidyl choline (LPC) with a final concentration of 1 mM were respectively added into the system. After fully mixing, the systems were incubated for 1 min at room temperature. Then fluorescence emission spectra thereof were measured and the fluorescence emission intensities at 557 nm were recorded.
smiles,measurement,setting,value
COc1ccc(-c2nc(-c3cc[n+](CCCCCCCCCCCC[n+]4ccccc4)cc3)n(-c3ccccc3)c2-c2ccc(OC)cc2)cc1 [Compound 3],average particle size,[1],600 nm
same,lysophosphatidic acid concentration range with good linear relationship to fluorescence intensity at 557 nm,[2],0 to 33 µM
same,fluorescence emission at 557 nm after addition of lysophosphatidic acid,"[3]; lysophosphatidic acid 50 μM, 1 min at room temperature",strong yellow fluorescence
same,fluorescence emission at 557 nm after addition of other substances,"[3]; L-proline, glycerin, sodium phosphate, magnesium sulfate, sodium acetate, sodium nitrate, sodium fluoride, glucose, urea, LPC each 1 mM",could not be observed to generate yellow fluorescence
